Measured values as given in patent publication US12275745B2, “Therapeutic compounds and methods of use” (Genentech, Inc., priority 2021, dated 2025).
pIC50: −log10 of the molar value. Read-outs that look alike come from different tables or passages of the source.

Columns and labels:
TEAD4 = TEAD4 (Homo sapiens, UniProt Q15561); assay: TR-FRET (Lipid HTRF) TEAD lipid pocket probe displacement assay, TEAD4; assay type: binding; conditions: His-tagged TEAD4, biotinylated lipid pocket probe, 4 hours
Protocol: (§1) His-tagged TEAD proteins are pre-incubated with TEAD project compounds for 30 minutes or 4 hours at room temperature. Biotinylated lipid pocket probes are then added to the TEAD/Compound mixture and incubated for 60 minutes at room temperature. The lipid pocket probe competes with the test compound for the TEAD lipid pocket until equilibrium is reached. After 60 minutes, Europium labelled anti-His (Perkin Elmer #AD0110) and XL665 labelled streptavidin (CIS Bio 610SAXAC) are added to the TEAD/test compound/lipid pocket mixture and incubated for 30 minutes or 4 hours. TR-FRET values are then measured using an EnVision multi-label plate reader (Perkin Elmer Cat #2104-001 0A.) If the lipid pocket probe binds to TEAD as expected, a TR-FRET signal results from the proximity of anti-His Eu and XL665. If a TEAD lipid pocket binder such as binds and displaces the lipid pocket probe, the disruption of the TEAD:probe interaction results in a decrease in TR-FRET signal. The potency of compounds as TEAD lipid pocket binders is determined by IC50 value generated using a non-linear 4 parameter curve fit.

TEAD1 = TEAD1 (Homo sapiens, UniProt P28347); assay: TR-FRET (Lipid HTRF) TEAD lipid pocket probe displacement assay, TEAD1; assay type: binding; conditions: His-tagged TEAD1, biotinylated lipid pocket probe, 4 hours
Protocol: as §1

TEAD3 = TEAD3 (Homo sapiens, UniProt Q99594); assay: TR-FRET (Lipid HTRF) TEAD lipid pocket probe displacement assay, TEAD3; assay type: binding; conditions: His-tagged TEAD3, biotinylated lipid pocket probe, 4 hours
Protocol: as §1

TEAD2 [1] = target: T1, TEAD2 (Homo sapiens, UniProt Q15562);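 note: TR-FRET competition assay with His-tagged TEAD protein and a biotinylated lipid pocket probe, where probe displacement by compound lowers the signal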
Protocol: as §1

TEAD2 [2] = target: T1, TEAD2; assay: biochemical
Protocol: as §1

T1 sequence (Q15562 whole entry, species assumed): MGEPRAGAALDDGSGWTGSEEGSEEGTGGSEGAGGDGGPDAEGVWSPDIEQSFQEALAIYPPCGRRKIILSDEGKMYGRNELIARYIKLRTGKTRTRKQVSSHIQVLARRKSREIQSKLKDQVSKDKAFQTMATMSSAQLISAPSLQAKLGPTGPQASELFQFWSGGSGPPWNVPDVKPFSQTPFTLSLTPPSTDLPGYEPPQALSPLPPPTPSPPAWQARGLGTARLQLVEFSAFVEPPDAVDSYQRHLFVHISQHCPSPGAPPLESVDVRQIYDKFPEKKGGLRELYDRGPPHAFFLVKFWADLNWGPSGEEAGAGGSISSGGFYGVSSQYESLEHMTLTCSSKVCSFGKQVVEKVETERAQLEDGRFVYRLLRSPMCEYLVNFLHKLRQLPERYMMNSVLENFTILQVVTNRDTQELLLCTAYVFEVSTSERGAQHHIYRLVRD
TEAD4, sequence (Q15561 whole entry, species assumed): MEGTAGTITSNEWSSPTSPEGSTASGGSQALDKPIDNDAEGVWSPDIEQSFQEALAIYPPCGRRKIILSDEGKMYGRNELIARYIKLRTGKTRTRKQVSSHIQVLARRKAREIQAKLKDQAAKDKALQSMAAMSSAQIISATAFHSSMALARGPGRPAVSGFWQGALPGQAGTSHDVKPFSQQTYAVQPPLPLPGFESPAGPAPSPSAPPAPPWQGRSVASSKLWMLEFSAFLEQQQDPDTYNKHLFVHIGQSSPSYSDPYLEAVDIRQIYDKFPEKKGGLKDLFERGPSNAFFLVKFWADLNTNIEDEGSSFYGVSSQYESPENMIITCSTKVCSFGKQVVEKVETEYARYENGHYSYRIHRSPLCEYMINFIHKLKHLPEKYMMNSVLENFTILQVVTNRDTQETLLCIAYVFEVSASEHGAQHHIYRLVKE
TEAD3, sequence (Q99594 whole entry, species assumed): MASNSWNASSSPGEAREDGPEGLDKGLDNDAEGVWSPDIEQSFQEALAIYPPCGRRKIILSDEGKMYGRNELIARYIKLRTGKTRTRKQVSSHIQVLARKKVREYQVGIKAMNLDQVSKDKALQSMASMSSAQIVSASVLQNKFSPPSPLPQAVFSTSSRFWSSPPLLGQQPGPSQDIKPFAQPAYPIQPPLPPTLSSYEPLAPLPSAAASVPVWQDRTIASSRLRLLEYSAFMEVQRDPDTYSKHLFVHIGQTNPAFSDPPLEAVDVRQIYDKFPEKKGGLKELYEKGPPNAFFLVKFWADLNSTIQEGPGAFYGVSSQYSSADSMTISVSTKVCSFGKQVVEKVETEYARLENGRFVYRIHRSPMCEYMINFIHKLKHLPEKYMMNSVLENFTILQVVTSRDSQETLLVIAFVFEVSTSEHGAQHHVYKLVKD
TEAD1, sequence (P28347 whole entry, species assumed): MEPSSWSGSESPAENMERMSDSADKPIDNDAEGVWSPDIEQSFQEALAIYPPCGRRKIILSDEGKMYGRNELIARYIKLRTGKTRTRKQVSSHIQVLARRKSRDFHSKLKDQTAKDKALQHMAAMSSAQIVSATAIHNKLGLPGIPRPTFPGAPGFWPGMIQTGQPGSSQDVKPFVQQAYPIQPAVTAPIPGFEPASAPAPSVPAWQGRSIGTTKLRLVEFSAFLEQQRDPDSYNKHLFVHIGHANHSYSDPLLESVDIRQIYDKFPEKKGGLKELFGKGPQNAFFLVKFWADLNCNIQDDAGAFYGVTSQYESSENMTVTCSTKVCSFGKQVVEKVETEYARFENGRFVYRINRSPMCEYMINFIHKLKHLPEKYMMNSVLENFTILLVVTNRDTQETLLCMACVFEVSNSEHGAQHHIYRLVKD

Compound | pIC50 (TEAD4) | pIC50 (TEAD1) | pIC50 (TEAD3) | pIC50 (TEAD2 [1]) | pIC50 (TEAD2 [2])
C=CC(=O)NCc1cc(-c2ccc(OC(F)(F)F)cc2)c2ncn(C)c2c1[C@@H](C)O (single isomer, unassigned) [Compound 32] | 7.27 | 7.49 | 5.60 | 8.00 | –
C=CC(=O)NCc1cc(-c2ccc(OC(F)(F)F)cc2)c2ncn(C)c2c1C#CCO [Compound 58, N-[[4-(3-hydroxyprop-1-ynyl)-3-methyl-7-[4-(trifluoromethoxy)phenyl]benzimidazol-5-yl]methyl]prop-2-enamide] | 8.46 | 8.16 | 7.03 | 8.22 | –
C=CC(=O)NC1CN(c2nc(-c3ccc(OC(F)(F)F)cc3)c3ncn(C)c3n2)C1 [Compound 127, N-(1-(9-Methyl-6-(4-(trifluoromethoxy)phenyl)-9H-purin-2-yl)azetidin-3-yl)acrylamide] | 7.64 | 7.59 | 6.38 | – | 7.55
Cn1cnc2c(-c3ccc(OC(F)(F)F)cc3)nc(C3(C#N)CN(C(=O)/C=C/CO)C3)nc21 [Compound 128, (E)-1-(4-Hydroxybut-2-enoyl)-3-(9-methyl-6-(4-(trifluoromethoxy)phenyl)-9H-purin-2-yl)azetidine-3-carbonitrile] | 8.57 | 7.96 | 8.00 | – | 7.68
C=C1CCN(Cc2nc(-c3ccc(OC(F)(F)F)cc3)c3ncn(C)c3n2)C1=O [Compound 129, 1-((9-Methyl-6-(4-(trifluoromethoxy)phenyl)-9H-purin-2-yl)methyl)-3-methylenepyrrolidin-2-one] | 7.61 | 6.22 | 5.87 | – | 5.96
C=CC(=O)NCc1nc(N2CCC(C(F)(F)F)CC2)c2ncn(C)c2n1 [Compound 130, N-((9-Methyl-6-(4-(trifluoromethyl)piperidin-1-yl)-9H-purin-2-yl)methyl)acrylamide] | 6.85 | 6.39 | 6.36 | – | 6.00
C=CC(=O)NCc1nc(N2CCC(OC(F)(F)F)CC2)c2ncn(C)c2n1 [Compound 131, N-((9-Methyl-6-(4-(trifluoromethoxy)piperidin-1-yl)-9H-purin-2-yl)methyl)acrylamide] | 7.09 | 6.40 | 5.92 | – | 5.80
C=C(F)C(=O)N1CC(c2nc(-c3ccc(OC(F)(F)F)cc3)c3ncn(C(F)F)c3n2)C1 [Compound 132, 1-(3-(9-(Difluoromethyl)-6-(4-(trifluoromethoxy)phenyl)-9H-purin-2-yl)azetidin-1-yl)-2-fluoroprop-2-en-1-one] | 7.62 | 8.16 | 7.00 | – | 6.82
C=CC(=O)NCc1nc(-c2ccc(OC(F)(F)F)cc2)nc2c1ncn2C [Compound 133, N-((9-Methyl-2-(4-(trifluoromethoxy)phenyl)-9H-purin-6-yl)methyl)acrylamide] | 7.55 | 7.28 | 6.38 | – | 6.44
C=C(F)C(=O)N1CC(n2cc(-c3ccc(OC(F)(F)F)cc3)c3nccnc3c2=O)C1 [Compound 134, 6-(1-(2-Fluoroacryloyl)azetidin-3-yl)-8-(4-(trifluoromethoxy)phenyl)pyrido[3,4-b]pyrazin-5(6H)-one] | 6.19 | 6.70 | 6.51 | – | 5.77
C=C(F)C(=O)N1CC(n2cc(-c3ccc(OC(F)(F)F)cc3)c3ncn(C)c3c2=O)C1 [Compound 136, 5-(1-(2-Fluoroacryloyl)azetidin-3-yl)-3-methyl-7-(4-(trifluoromethoxy)phenyl)-3,5-dihydro-4H-imidazo[4,5-c]pyridin-4-one] | 7.92 | 7.74 | 7.33 | – | 7.52
Cn1cnc2c(-c3ccc(OC(F)(F)F)cc3)cn(C3CN(C(=O)/C=C/CO)C3)c(=O)c21 [Compound 137, (E)-5-(1-(4-Hydroxybut-2-enoyl)azetidin-3-yl)-3-methyl-7-(4-(trifluoromethoxy)phenyl)-3,5-dihydro-4H-imidazo[4,5-c]pyridin-4-one] | 7.85 | 7.12 | 7.02 | – | 7.03
C=CC(=O)NCc1cc(-c2ccc(OC(F)(F)F)cc2)c2ncn(C)c2c1NCCO [Compound 140, N-((7-((2-Hydroxyethyl)amino)-1-methyl-4-(4-(trifluoromethoxy)phenyl)-1H-benzo[d]imidazol-6-yl)methyl)acrylamide] | 7.37 | 7.57 | 5.52 | – | 7.33
C=C(NC(=O)c1cc(-c2ccc(OC(F)(F)F)cc2)c2ncn(C)c2c1)C(=O)OC [Compound 141, Methyl 2-(1-methyl-4-(4-(trifluoromethoxy)phenyl)-1H-benzo[d]imidazole-6-carboxamido)acrylate] | 7.82 | 7.24 | 5.80 | – | 7.01
C=CC(=O)NCc1cc(-c2ccc(OC(F)(F)F)cc2F)c2ncn(C)c2c1C#N [Compound 143, N-((7-Cyano-4-(2-fluoro-4-(trifluoromethoxy)phenyl)-1-methyl-1H-benzo[d]imidazol-6-yl)methyl)acrylamide] | 8.02 | 7.59 | 7.16 | – | 7.66
C=CC(=O)N(C)CCc1cc(-c2ccc(OC(F)(F)F)cc2)c2ncn(C)c2c1C#N [Compound 144, N-(2-(7-Cyano-1-methyl-4-(4-(trifluoromethoxy)phenyl)-1H-benzo[d]imidazol-6-yl)ethyl)-N-methylacrylamide] | 7.64 | 7.03 | 5.89 | – | 7.41
C=C(F)C(=O)N1CC(c2cc(-c3ccc(OC(F)(F)F)cc3)c3ncn(C)c3c2)C1 [Compound 145, 2-Fluoro-1-(3-(1-methyl-4-(4-(trifluoromethoxy)phenyl)-1H-benzo[d]imidazol-6-yl)azetidin-1-yl)prop-2-en-1-one] | 7.92 | 8.16 | 6.62 | – | 7.72
